According to PubChem BioAssay AID248 (DTP/NCI, 2004):
Where “and” joins values, the source holds several entries; their conditions need not be identical. Identical values can stand only once. Inconclusive results and toxic doses are left out.

System: L1210 leukemia ip in BDF1 mice, survival T/C
Experiment: NCI In Vivo Anticancer Drug Screen. Data for tumor model L1210 Leukemia (intraperitoneal) in B6D2F1 (BDF1) mice
Conditions: higher = longer survival
How it was run: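 In this screen, tumor-bearing mice given compound are compared to those given vehicle, and their survival values are reported as a treated-to-control quotient.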

C[n+]1ccc(Nc2ccc(NC(=O)c3ccc(Nc4cc[n+](C)c5ccc(N)cc45)cc3)cc2)cc1
T/C (endpoint: mean survival time, dose: 0.5 mg/kg/injection, schedule: Q01DX009 (ip), vehicle: water): 118 % of control | T/C (endpoint: mean survival time, dose: 0.5 mg/kg/injection, schedule: Q01DX009 (sc), vehicle: water): 151 % of control | T/C (endpoint: mean survival time, dose: 1.0 mg/kg/injection, schedule: Q01DX009 (ip), vehicle: Klucel (hydroxypropylcellulose) (HPC)): 112 % of control | T/C (endpoint: mean survival time, dose: 1.0 mg/kg/injection, schedule: Q01DX009 (sc), vehicle: Klucel (hydroxypropylcellulose) (HPC)): 159 % of control | T/C (endpoint: mean survival time, dose: 1.0 mg/kg/injection, schedule: Q01DX009 (sc), vehicle: water): 110 % of control and 113 % of control | T/C (endpoint: mean survival time, dose: 2.0 mg/kg/injection, schedule: Q01DX009 (ip), vehicle: Klucel (hydroxypropylcellulose) (HPC)): 107 % of control | T/C (endpoint: mean survival time, dose: 2.0 mg/kg/injection, schedule: Q01DX009 (ip), vehicle: water): 185 % of control and 204 % of control and 235 % of control | T/C (endpoint: mean survival time, dose: 2.0 mg/kg/injection, schedule: Q01DX009 (sc), vehicle: water): 175 % of control | T/C (endpoint: mean survival time, dose: 4.0 mg/kg/injection, schedule: Q01DX009 (ip), vehicle: Klucel (hydroxypropylcellulose) (HPC)): 118 % of control | T/C (endpoint: mean survival time, dose: 4.0 mg/kg/injection, schedule: Q01DX009 (ip), vehicle: water): 234 % of control and 267 % of control and 272 % of control | T/C (endpoint: mean survival time, dose: 4.0 mg/kg/injection, schedule: Q01DX009 (sc), vehicle: Klucel (hydroxypropylcellulose) (HPC)): 200 % of control | T/C (endpoint: mean survival time, dose: 4.0 mg/kg/injection, schedule: Q01DX009 (sc), vehicle: water): 205 % of control and 224 % of control | T/C (endpoint: mean survival time, dose: 8.0 mg/kg/injection, schedule: Q01DX009 (ip), vehicle: Klucel (hydroxypropylcellulose) (HPC)): 215 % of control | T/C (endpoint: mean survival time, dose: 8.0 mg/kg/injection, schedule: Q01DX009 (ip), vehicle: water): 175 % of control and 211 % of control and 252 % of control | T/C (endpoint: mean survival time, dose: 8.0 mg/kg/injection, schedule: Q01DX009 (sc), vehicle: water): 190 % of control and 222 % of control | T/C (endpoint: mean survival time, dose: 10.0 mg/kg/injection, schedule: Q01DX009 (oral), vehicle: Klucel (hydroxypropylcellulose) (HPC)): 104 % of control | T/C (endpoint: mean survival time, dose: 12.5 mg/kg/injection, schedule: Q04DX003 (ip), vehicle: saline with Tween-80): 247 % of control | T/C (endpoint: mean survival time, dose: 12.5 mg/kg/injection, schedule: Q04DX003 (ip), vehicle: saline): 257 % of control | T/C (endpoint: mean survival time, dose: 16.0 mg/kg/injection, schedule: Q01DX009 (sc), vehicle: Klucel (hydroxypropylcellulose) (HPC)): 176 % of control | T/C (endpoint: mean survival time, dose: 16.0 mg/kg/injection, schedule: Q01DX009 (sc), vehicle: water): 155 % of control and 171 % of control | T/C (endpoint: mean survival time, dose: 20.0 mg/kg/injection, schedule: Q01DX009 (oral), vehicle: Klucel (hydroxypropylcellulose) (HPC)): 105 % of control | T/C (endpoint: mean survival time, dose: 25.0 mg/kg/injection, schedule: Q04DX003 (ip), vehicle: saline with Tween-80): 269 % of control | T/C (endpoint: mean survival time, dose: 40.0 mg/kg/injection, schedule: Q01DX009 (oral), vehicle: Klucel (hydroxypropylcellulose) (HPC)): 100 % of control | T/C (endpoint: mean survival time, dose: 50.0 mg/kg/injection, schedule: Q04DX003 (ip), vehicle: saline with Tween-80): 248 % of control | T/C (endpoint: mean survival time, dose: 50.0 mg/kg/injection, schedule: Q04DX003 (ip), vehicle: saline): 253 % of control | T/C (endpoint: mean survival time, dose: 75.0 mg/kg/injection, schedule: Q04DX003 (ip), vehicle: saline): 227 % of control | T/C (endpoint: mean survival time, dose: 80.0 mg/kg/injection, schedule: Q01DX009 (oral), vehicle: Klucel (hydroxypropylcellulose) (HPC)): 105 % of control | T/C (endpoint: mean survival time, dose: 160.0 mg/kg/injection, schedule: Q01DX009 (oral), vehicle: Klucel (hydroxypropylcellulose) (HPC)): 101 % of control | T/C (endpoint: median survival time, dose: 0.25 mg/kg/injection, schedule: Q03HX008 (ip), vehicle: water): 103 % of control and 121 % of control | T/C (endpoint: median survival time, dose: 0.25 mg/kg/injection, schedule: Q03HX016 (ip), vehicle: water): 107 % of control and 116 % of control | T/C (endpoint: median survival time, dose: 0.25 mg/kg/injection, schedule: Q03HX024 (ip), vehicle: water): 112 % of control and 116 % of control | T/C (endpoint: median survival time, dose: 0.5 mg/kg/injection, schedule: Q01DX005 (ip), vehicle: water): 102 % of control and 124 % of control | T/C (endpoint: median survival time, dose: 0.5 mg/kg/injection, schedule: Q01DX009 (ip), vehicle: water): 112 % of control and 122 % of control | T/C (endpoint: median survival time, dose: 0.5 mg/kg/injection, schedule: Q01DX009 (sc), vehicle: water): 96 % of control and 100 % of control | T/C (endpoint: median survival time, dose: 0.5 mg/kg/injection, schedule: Q03HX008 (ip), vehicle: water): 112 % of control | T/C (endpoint: median survival time, dose: 0.5 mg/kg/injection, schedule: Q03HX016 (ip), vehicle: water): 119 % of control | T/C (endpoint: median survival time, dose: 0.5 mg/kg/injection, schedule: Q03HX024 (ip), vehicle: water): 150 % of control | T/C (endpoint: median survival time, dose: 1.0 mg/kg/injection, schedule: Q01DX005 (ip), vehicle: water): 117 % of control | T/C (endpoint: median survival time, dose: 1.0 mg/kg/injection, schedule: Q01DX009 (sc), vehicle: water): 101 % of control and 111 % of control | T/C (endpoint: median survival time, dose: 1.0 mg/kg/injection, schedule: Q03HX016 (ip), vehicle: water): 169 % of control | T/C (endpoint: median survival time, dose: 1.0 mg/kg/injection, schedule: Q03HX024 (ip), vehicle: water): 169 % of control and 186 % of control | T/C (endpoint: median survival time, dose: 2.0 mg/kg/injection, schedule: Q01DX001 (sc), vehicle: water): 97 % of control and 98 % of control | T/C (endpoint: median survival time, dose: 2.0 mg/kg/injection, schedule: Q01DX005 (ip), vehicle: water): 179 % of control | T/C (endpoint: median survival time, dose: 2.0 mg/kg/injection, schedule: Q01DX009 (ip), vehicle: water): 177 % of control and 224 % of control | T/C (endpoint: median survival time, dose: 2.0 mg/kg/injection, schedule: Q01DX009 (sc), vehicle: water): 150 % of control | T/C (endpoint: median survival time, dose: 2.0 mg/kg/injection, schedule: Q03HX008 (ip), vehicle: water): 169 % of control | T/C (endpoint: median survival time, dose: 2.0 mg/kg/injection, schedule: Q03HX016 (ip), vehicle: water): 158 % of control and 213 % of control | T/C (endpoint: median survival time, dose: 2.0 mg/kg/injection, schedule: Q03HX024 (ip), vehicle: water): 197 % of control | T/C (endpoint: median survival time, dose: 2.0 mg/kg/injection, schedule: Q04DX003 (ip), vehicle: water): 114 % of control and 121 % of control | T/C (endpoint: median survival time, dose: 2.0 mg/kg/injection, schedule: Q08DX002 (ip), vehicle: water): 110 % of control and 113 % of control | T/C (endpoint: median survival time, dose: 4.0 mg/kg/injection, schedule: Q01DX001 (ip), vehicle: water): 110 % of control | T/C (endpoint: median survival time, dose: 4.0 mg/kg/injection, schedule: Q01DX001 (sc), vehicle: water): 95 % of control and 105 % of control | T/C (endpoint: median survival time, dose: 4.0 mg/kg/injection, schedule: Q01DX005 (ip), vehicle: water): 195 % of control | T/C (endpoint: median survival time, dose: 4.0 mg/kg/injection, schedule: Q01DX009 (ip), vehicle: water): 231 % of control | T/C (endpoint: median survival time, dose: 4.0 mg/kg/injection, schedule: Q01DX009 (sc), vehicle: water): 183 % of control and 222 % of control | T/C (endpoint: median survival time, dose: 4.0 mg/kg/injection, schedule: Q03HX008 (ip), vehicle: water): 202 % of control | T/C (endpoint: median survival time, dose: 4.0 mg/kg/injection, schedule: Q03HX016 (ip), vehicle: water): 229 % of control and 261 % of control | T/C (endpoint: median survival time, dose: 4.0 mg/kg/injection, schedule: Q03HX024 (ip), vehicle: water): 201 % of control and 247 % of control | T/C (endpoint: median survival time, dose: 4.0 mg/kg/injection, schedule: Q04DX003 (ip), vehicle: water): 124 % of control | T/C (endpoint: median survival time, dose: 4.0 mg/kg/injection, schedule: Q08DX002 (ip), vehicle: water): 116 % of control and 124 % of control | T/C (endpoint: median survival time, dose: 8.0 mg/kg/injection, schedule: Q01DX001 (ip), vehicle: water): 121 % of control | T/C (endpoint: median survival time, dose: 8.0 mg/kg/injection, schedule: Q01DX001 (sc), vehicle: water): 105 % of control and 113 % of control | T/C (endpoint: median survival time, dose: 8.0 mg/kg/injection, schedule: Q01DX005 (ip), vehicle: water): 211 % of control | T/C (endpoint: median survival time, dose: 8.0 mg/kg/injection, schedule: Q01DX009 (sc), vehicle: water): 178 % of control | T/C (endpoint: median survival time, dose: 8.0 mg/kg/injection, schedule: Q04DX003 (ip), vehicle: water): 164 % of control | T/C (endpoint: median survival time, dose: 8.0 mg/kg/injection, schedule: Q08DX002 (ip), vehicle: water): 153 % of control | T/C (endpoint: median survival time, dose: 16.0 mg/kg/injection, schedule: Q01DX001 (sc), vehicle: water): 105 % of control | T/C (endpoint: median survival time, dose: 16.0 mg/kg/injection, schedule: Q01DX009 (sc), vehicle: water): 95 % of control | T/C (endpoint: median survival time, dose: 32.0 mg/kg/injection, schedule: Q01DX001 (sc), vehicle: water): 165 % of control | T/C (endpoint: median survival time, dose: 64.0 mg/kg/injection, schedule: Q01DX001 (sc), vehicle: water): 192 % of control and 267 % of control
